Laboratory results as given in patent publication US20240207427A1, “SELECTIVE DRUG RELEASE FROM INTERNALIZED CONJUGATES OF BIOLOGICALLY ACTIVE COMPOUNDS” (priority 2021, published 2024).
Like-named read-outs stand apart in the source and are kept apart here.

Key:
Assay type in all cases: cell-based
[1] = test system: anaplastic large cell lymphoma cells (Karpas299); test: In vitro potency (CellTiter-Glo, 96 h), Karpas299; settings: Homo sapiens, KARPAS-299, 96 h
Description: (§1) In vitro potency was assessed on multiple cancer cell lines. All cell lines were authenticated by STR profiling at IDEXX Bioresearch and cultured for no more than 2 months after resuscitation. Cells cultured in log-phase growth were seeded for 24 hours in 96-well plates containing […] RPMI 1640 supplemented with 20% FBS. Serial dilutions of antibody-drug conjugates in cell culture media were prepared at 4× working concentrations, and 50 μL of each dilution was added to the 96-well plates. Following addition of test articles, cells were incubated with test articles for 4 days at 37 0° C. After 96 hours, growth inhibition was assessed by CellTiterGlo® (Promega, Madison, WI) and luminescence was measured on a plate reader.
(§2) In Table 7, IC50 values for ADCs are given in ng/mL. Cell viability was determined by CellTiter-Glo staining after 96 h exposure to ADC. ND=Not Determined. Ag2 is an antibody targeting a ubiquitous and readily internalizable antigen. The cancer cell lines tested are renal carcinoma cells (786-0), melanoma cells (A2058), pancreatic cancer cells (BxPC3), non-small-cell lung cancer cells (Calu1), anaplastic large cell lymphoma cells (DEL, DELBVR, Karpas299), Hodgkin's lymphoma cells (L540cy), (Ls174T), breast cancer cells (MDA-MB-231), acute myeloid leukemia cells (MOLM-13), and B-lymphocyte cancer cells (SU-DHL4).
as §1, with “FBS.” for “FBS. Serial dilutions of antibody-drug conjugates in cell culture media were prepared at 4× working concentrations, and 50 μL of each dilution was added to the 96-well plates.”
(§3) Cell viability was determined by CellTiter-Glo staining after 96 h exposure to the compound. ND=Not Determined. The cancer cell lines tested are renal carcinoma cells (786-0), melanoma cells (A2058), pancreatic cancer cells (BxPC3), non-small-cell lung cancer cells (Calu1), anaplastic large cell lymphoma cells (DEL, DELBVR, Karpas299), Hodgkin's lymphoma cells (L540cy), (Ls 174T), breast cancer cells (MDA-MB-231), acute myeloid leukemia cells (MOLM-13), B-lymphocyte cancer cells (SU-DHL4), multiple myeloma cells (MM.1R), (U266), and melanoma cells (SK-MEL-5).
as §1, with “37°” for “37 0°”
(§4) In the following Tables IC50 values for ADCs and CPT free drugs are given in ng/mL and nmol/L concentrations. Cell viability was determined by CellTiter-Glo staining after 96 h exposure to ADC or CPT free drug.
(§5) Cell viability was determined by CellTiter-Glo staining after 96 h exposure to ADC. ND=Not Determined.

[2] = test system: pancreatic cancer cells (BxPC3); test: In vitro potency (CellTiter-Glo, 96 h), BxPC3; settings: Homo sapiens, BXPC-3, 96 h
Description: as §1, §2
as §1, with “FBS.” for “FBS. Serial dilutions of antibody-drug conjugates in cell culture media were prepared at 4× working concentrations, and 50 μL of each dilution was added to the 96-well plates.”
as §3
as §1, with “37°” for “37 0°”
as §4, §5

[3] = test system: B-lymphocyte cancer cells (SU-DHL4); test: In vitro potency (CellTiter-Glo, 96 h), SU-DHL-4; settings: Homo sapiens, SU-DHL-4, 96 h
Description: as §1, §2
as §1, with “FBS.” for “FBS. Serial dilutions of antibody-drug conjugates in cell culture media were prepared at 4× working concentrations, and 50 μL of each dilution was added to the 96-well plates.”
as §3
as §1, with “37°” for “37 0°”
as §4, §5

[4] = test system: anaplastic large cell lymphoma cells (DEL); test: In vitro potency (CellTiter-Glo, 96 h), DEL
Description: as §1, §2
as §1, with “FBS.” for “FBS. Serial dilutions of antibody-drug conjugates in cell culture media were prepared at 4× working concentrations, and 50 μL of each dilution was added to the 96-well plates.”
as §3
as §1, with “37°” for “37 0°”
as §4, §5

Ls174T cells = test: In vitro potency (CellTiter-Glo, 96 h), Ls174T; settings: Homo sapiens, LS174T, 96 h
Description: as §1, §2
as §1, with “FBS.” for “FBS. Serial dilutions of antibody-drug conjugates in cell culture media were prepared at 4× working concentrations, and 50 μL of each dilution was added to the 96-well plates.”
as §3
as §1, with “37°” for “37 0°”
as §4, §5

[5] = test system: breast cancer cells (MDA-MB-231); test: In vitro potency (CellTiter-Glo, 96 h), MDA-MB-231; settings: Homo sapiens, MDA-MB-231, 96 h
Description: as §1, §2
as §1, with “FBS.” for “FBS. Serial dilutions of antibody-drug conjugates in cell culture media were prepared at 4× working concentrations, and 50 μL of each dilution was added to the 96-well plates.”
as §3
as §1, with “37°” for “37 0°”
as §4, §5

[6] = test system: Hodgkin's lymphoma cells (L540cy); test: In vitro potency (CellTiter-Glo, 96 h), L540cy
Description: as §1, §2
as §1, with “FBS.” for “FBS. Serial dilutions of antibody-drug conjugates in cell culture media were prepared at 4× working concentrations, and 50 μL of each dilution was added to the 96-well plates.”
as §3
as §1, with “37°” for “37 0°”
as §4, §5

[7] = test system: acute myeloid leukemia cells (MOLM-13); test: In vitro potency (CellTiter-Glo, 96 h), MOLM-13; settings: Homo sapiens, MOLM-13, 96 h
Description: as §1, §2
as §1, with “FBS.” for “FBS. Serial dilutions of antibody-drug conjugates in cell culture media were prepared at 4× working concentrations, and 50 μL of each dilution was added to the 96-well plates.”
as §3
as §1, with “37°” for “37 0°”
as §4, §5

melanoma cells (A2058) = test: In vitro potency (CellTiter-Glo, 96 h), A2058; settings: Homo sapiens, A2058, 96 h, read-out: A2058 IC50
Description: as §1, §2
as §1, with “FBS.” for “FBS. Serial dilutions of antibody-drug conjugates in cell culture media were prepared at 4× working concentrations, and 50 μL of each dilution was added to the 96-well plates.”
as §3
as §1, with “37°” for “37 0°”
as §4, §5

[8] = test system: anaplastic large cell lymphoma cells (DELBVR); test: In vitro potency (CellTiter-Glo, 96 h), DELBVR
Description: as §1, §2
as §1, with “FBS.” for “FBS. Serial dilutions of antibody-drug conjugates in cell culture media were prepared at 4× working concentrations, and 50 μL of each dilution was added to the 96-well plates.”
as §3
as §1, with “37°” for “37 0°”
as §4, §5

[9] = test system: renal carcinoma cells (786-O); test: In vitro potency (CellTiter-Glo, 96 h), 786-O; settings: Homo sapiens, 786-0, 96 h
Description: as §1, §2
as §1, with “FBS.” for “FBS. Serial dilutions of antibody-drug conjugates in cell culture media were prepared at 4× working concentrations, and 50 μL of each dilution was added to the 96-well plates.”
as §3
as §1, with “37°” for “37 0°”
as §4, §5

[10] = read-out: Karpas299 IC50, camptothecin free drug, 96 h
[11] = read-out: BxPC3 IC50, camptothecin free drug, 96 h
[12] = read-out: SU-DHL-4 IC50, camptothecin free drug, 96 h
[13] = read-out: DEL IC50, camptothecin free drug, 96 h
[14] = read-out: Ls174T IC50, camptothecin free drug, 96 h
[15] = read-out: MDAMB231 IC50, camptothecin free drug, 96 h
[16] = read-out: L540cy IC50, camptothecin free drug, 96 h
[17] = read-out: MOLM-13 IC50, camptothecin free drug, 96 h
[18] = read-out: DELBVR IC50, camptothecin free drug, 96 h
[19] = read-out: 786-O IC50, camptothecin free drug, 96 h

| Structure (SMILES) | IC50 [1, 10] [nM] | IC50 [2, 11] [nM] | IC50 [3, 12] [nM] | IC50 [4, 13] [nM] | IC50 (Ls174T cells; [14]) [nM] | IC50 [5, 15] [nM] | IC50 [6, 16] [nM] | IC50 [7, 17] [nM] | IC50 (melanoma cells (A2058)) [nM] | IC50 [8, 18] [nM] | IC50 [9, 19] [nM] | other results |
| --- | --- | --- | --- | --- | --- | --- | --- | --- | --- | --- | --- | --- |
| CC[C@@]1(O)C(=O)OCc2c1cc1n(c2=O)Cc2c-1nc1cc3c(cc1c2CNC1CCOCC1)OCO3 [Compound 7k] | 46 | 63 | 19 | 6 | 67 | 207 | 20 | 34 | 14 | 14 | 57 | – |
| CC[C@@]1(O)C(=O)OCc2c1cc1n(c2=O)Cc2c-1nc1cc3c(cc1c2CNCCCN1CCN(C(=O)OC(C)(C)C)CC1)OCO3 [Compound 7m] | – | – | – | – | – | – | – | – | – | – | – | IC50 ([1]; camptothecin free drug, 96 h, read-out: Karpas299 IC50): 171 nM; IC50 ([2]; camptothecin free drug, 96 h, read-out: BxPC3 IC50): 173 nM; IC50 ([3]; camptothecin free drug, 96 h, read-out: SU-DHL-4 IC50): 74 nM; IC50 ([4]; camptothecin free drug, read-out: DEL IC50): 55 nM; IC50 (Ls174T cells; camptothecin free drug, read-out: Ls174T IC50): 222 nM; IC50 ([5]; camptothecin free drug, 96 h, read-out: MDAMB231 IC50): 700 nM; IC50 ([6]; camptothecin free drug, read-out: L540cy IC50): 80 nM; IC50 ([7]; camptothecin free drug, 96 h, read-out: MOLM-13 IC50): 459 nM; IC50 (melanoma cells (A2058); camptothecin free drug, 96 h): 58 nM; IC50 ([8]; camptothecin free drug, read-out: DELBVR IC50): 54 nM; IC50 ([9]; camptothecin free drug, 96 h, read-out: 786-O IC50): 139 nM |
| CC[C@@]1(O)C(=O)OCc2c1cc1n(c2=O)Cc2c-1nc1cc3c(cc1c2CNCCCN(C)C)OCO3 [Compound 7t] | 166 | 171 | 97 | 58 | > 1000 | 1000 | 70 | 326 | 64 | 55 | 153 | – |
| CC[C@@]1(O)C(=O)OCc2c1cc1n(c2=O)Cc2c-1nc1cc3c(cc1c2CNC[C@@H](O)CO)OCO3 [Compound 7u] | 128 | 108 | 66 | 26 | 86 | 707 | 60 | 456 | 19 | 50 | 122 | – |
| CC[C@@]1(O)C(=O)OCc2c1cc1n(c2=O)Cc2c-1nc1cc3c(cc1c2CNCCCN)OCO3 [Compound 7v] | 132 | 225 | 99 | 58 | 146 | 1000 | 87 | > 1000 | 69 | 57 | 174 | – |
